Legend:
[1] = system: H-Ras; assay: Western Blotting, H-Ras level; assay type: cell-based; conditions: human liver cancer cells, Lewis lung cancer cells and other cancer cell lines and tumor tissues, read-out: Effective concentration (IC50) for inhibition of H-Ras
Excerpt: (§1) Antibodies: primary antibodies of VEGFR, EGFR, c-Met, K-Ras, H-Ras, Akt, NF-κB, Cyclin D1, ER-alpha, Dvl-1, Dvl-2, Dvl-3, MMP-9, MMP2, β-catenin, Bcl-2, Bax, p53, p21, E-cadherin and Caspase3 protein, purchased from American Cell Signaling Technology Company and Santa Cruz Technology Company; and H3 acetylation, H4 acetylation and HDAC (HDAC3, HDAC4 and the like) Antibody Sample Kits, purchased from Cell Signaling Technology Company of the U.S.
(§2) (3) polyacrylamide gel electrophoresis (SDS-PAGE): an equal amount of protein lysate sample was used to separate protein, film transfer, and blocking, treated with appropriate primary antibodies and secondary antibodies in sequence, and the film was washed, then the color was developed with ECL kit, and a blot protein band was detected by exposure of an X-ray film; and a Gel-Pro Analyzer was used for quantitative analysis of gray degree, optical density value of the control group and the drug treatment group in various concentration were respectively compared with that of internal reference, the obtained ratios were respectively compared with the control group, and the protein expression level was semi-quantified.

[2] = system: K-Ras; assay: Western Blotting, K-Ras level; assay type: cell-based; conditions: human liver cancer cells, Lewis lung cancer cells and other cancer cell lines and tumor tissues, read-out: Effective concentration (IC50) for inhibition of K-Ras
Excerpt: as §1, §2

[3] = system: c-Met; assay: Western Blotting, c-Met level; assay type: cell-based; conditions: human liver cancer cells, Lewis lung cancer cells and other cancer cell lines and tumor tissues, read-out: Effective concentration (IC50) for inhibition of c-Met
Excerpt: as §1, §2

[4] = system: HDAC4; assay: HDAC4 enzyme activity in nuclear extracts of human tumor xenografts of treated mice; conditions: second value of the pair HDAC3 and HDAC4, SAHA 25 mg/kg
Method: For the detection of the effect of the drugs on enzyme activity of EZH2 and HDAC of in-vivo tumors, the tumors were separately excised after 6 h of medication, total proteins and nucleoproteins were extracted separately to detect and analyze the activity of the enzyme.
(2) 50 μl of diluted sample solution was added into each reaction well, the plate was sealed with a plate-sealing film and reacted at room temperature for 30 min;
(3) the plate-sealing film was carefully peeled off, the liquid was removed, dried, 150 μl of washing liquid was added into each well, stood for 30 s, then the liquid was removed, repeated twice, and dried;
(4) 2 μl of HDAC enzyme or tumor tissue nuclear extracts was respectively uniformly mixed with 28 μl of diluted sample solution, added into the wells, the plate was sealed with the plate-sealing film and reacted at 37° C. for 60 min;
(5) the plate was washed for three times, wherein the operation was the same as that in (3); and a diluted antibody capture working solution was added into each reaction well according to 50 μl/well and reacted on a shaking bed at room temperature for 60 min;
(6) the plate was washed for four times, wherein the operation was the same as that in (3);
(7) a diluted antibody detection working solution was added into each reaction well according to 50 μl/well and reacted at room temperature for 30 min;
(8) the plate was washed for five times, wherein the operation was the same as that in (3);
a color developing agent was added according to 100 μl/well, and performed dark development for 2-10 min;
(9) 50 μl of stop solution was added into each well for stopping the reaction when the color in the well with a standard product turned blue with medium intensity, the color immediately turned yellow from blue after the addition;
(10) the light absorbance (OD value) of each well was measured in sequence at the wavelength of 450 nm; wherein the measurement should be performed within 15 min after addition of the stop solution; and

[5] = system: human liver cancer cells HepG2; assay: MTT growth inhibition, HepG2 cells; assay type: cell-based; conditions: 72 h after treatment, read-out: Drug concentration (IC50) at which 50% cancer cells survived
[6] = system: VEGFR2; assay: Western Blotting, VEGFR2 level; assay type: cell-based; conditions: human liver cancer cells, Lewis lung cancer cells and other cancer cell lines and tumor tissues, read-out: Effective concentration (IC50) for inhibition of VEGFR2
Excerpt: as §1, §2

[7] = system: human breast cancer cells MCF-7 xenograft; assay: In-vivo growth of MCF-7 xenografts in nude mice; set-up: species or system BALB/c nude mice; conditions: Mus musculus, MCF7, ip, vs DMSO solvent control, read-out: Curative effect (inhibition rate %) of tumor weight; for inhibition in vivo at 60 mg/kg: 60 mg/kg intraperitoneal once a day; for inhibition in vivo at 90 mg/kg: 90 mg/kg intraperitoneal once a day
Method: (§3) RPMI1640 and DMEM culture solutions: Hyclone Company; inactivated fetal bovine serum: Hyclone Company, preserved at −20° C.; trypsin: Amersco Company; and 0.4% trypan blue: Sigma Company;
(3) Observation of growth of tumors in nude mice: the activities (including food intake, traits of urine and stool, mental state and the like) of the nude mice and the tumor growth time and growth situation of the transplanted tumors were observed every day, the body weight and the size of the tumors were measured once every 2-3 days. The long diameter a and the short diameter b (mm) of each tumor were measured by a vernier caliper to calculate the volume, wherein the volume V=π1/2·ab^2 (mm^3);
(§4) (4) sacrifice of animals: the mice were anesthetized and photoed after treatment experiments; the nude mice were sacrificed by breaking neck, the tumor tissues were stripped under sterile conditions and the weight of the tumors was weighed; and the effects of the drugs on pathology and toxicity of the various organs and tissues were detected.

[8] = system: Bcl-2/Bax; assay: Western Blotting, Bcl-2/Bax level; assay type: cell-based; conditions: human liver cancer cells, Lewis lung cancer cells and other cancer cell lines and tumor tissues, read-out: Effective concentration (IC50) for inhibition of Bcl-2/Bax
Excerpt: as §1, §2

[9] = system: human pancreatic cancer cells PANC-1; assay: MTT growth inhibition, PANC-1 cells; assay type: cell-based; conditions: 72 h after treatment, read-out: Drug concentration (IC50) at which 50% cancer cells survived
[10] = system: Lewis lung cancer (highly metastatic mouse lung cancer) cells; assay: Mouse Lewis lung cancer metastasis model; assay type: in vivo, C57/BL6J black mice; conditions: Lewis lung carcinoma, ip, LLC, vs DMSO solvent control, read-out: tumor lung metastasis inhibition rate % of mouse Lewis lung cancer; for inhibition in vivo at 60 mg/kg: 60 mg/kg intraperitoneal once a day; for inhibition in vivo at 90 mg/kg: 90 mg/kg intraperitoneal once a day
Method: as §3, §4

[11] = system: human lung cancer cells H460; assay: MTT growth inhibition, H460 cells; assay type: cell-based; conditions: NCI-H460, 72 h after treatment, read-out: Drug concentration (IC50) at which 50% cancer cells survived

**Q.** How did the IC50 [1] turn out when CCNC(=O)CCC(NC(=O)c1cc2cc(F)ccc2oc1=O)C(=O)OCC (stereo in doubt) [Compound Ie, (R)-2-(6-F-2-oxo-2H-benzopyran-3-carboxamido)-5-ethylamino-5-oxo-pentanoic acid ethyl ester] was run?
**A.** Its IC50 is < 60 µM.

**Q.** What about the IC50 [2] of the same molecule?
**A.** The IC50 was < 60 µM.

**Q.** What about the IC50 [3] of the same molecule?
**A.** The IC50 was < 145 µM.

**Q.** What about the “decrease of HDAC4 enzyme activity/inhibition rate” value ([4]; A549 tumor grown in vivo) of the same molecule?
**A.** The value was 72%*(A549)-.

**Q.** And the “decrease of HDAC4 enzyme activity/inhibition rate” value ([4]; MCF7 tumor grown in vivo)?
**A.** The value was 67%*(MCF7).

**Q.** And the “decrease of HDAC4 enzyme activity/inhibition rate” value ([4]; MDA-MB231 tumor grown in vivo)?
**A.** Its value is 62%*(MDA-MB231).

**Q.** What about the “decrease of HDAC4 enzyme activity/inhibition rate” value ([4]; SMMC7721 tumor grown in vivo) of the same molecule?
**A.** The value was 65%*(SMMC7721);.

**Q.** And the IC50 [5]?
**A.** Its IC50 is 230 µM.

**Q.** And the IC50 [6]?
**A.** Its IC50 is < 90 µM.

**Q.** And the inhibition in vivo at 60 mg/kg [7]?
**A.** Its inhibition in vivo at 60 mg/kg is 66.8%.

**Q.** And the inhibition in vivo at 90 mg/kg [7]?
**A.** Its inhibition in vivo at 90 mg/kg is 69.8%.

**Q.** And the IC50 [8]?
**A.** The IC50 was < 180 µM.

**Q.** And the IC50 [9]?
**A.** Its IC50 is 72 µM.

**Q.** And the inhibition in vivo at 60 mg/kg [10]?
**A.** Its inhibition in vivo at 60 mg/kg is 61.6%.

**Q.** What about the inhibition in vivo at 90 mg/kg [10] of the same molecule?
**A.** The inhibition in vivo at 90 mg/kg was 70.8%.

**Q.** What about the IC50 [11] of the same molecule?
**A.** The IC50 was 100 µM.

**Q.** For CCNC(=O)CC[C@@H](NC(=O)c1cc2cc(Br)cc(Br)c2oc1=O)C(=O)OCC [Compound Ih, (R)-2-(6,8-dibromo-2-oxo-2H-benzopyran-3-carboxamido)-5-ethylamino-5-oxo-pentanoic ethyl ester], which IC50 [1] is on record?
**A.** The IC50 was < 65 µM.

**Q.** What about the IC50 [2] of the same molecule?
**A.** The IC50 was < 65 µM.

**Q.** What about the IC50 [3] of the same molecule?
**A.** Its IC50 is < 500 µM.

**Q.** What about the “decrease of HDAC4 enzyme activity/inhibition rate” value ([4]; A549 tumor grown in vivo) of the same molecule?
**A.** The value was 59%*(A549)-.

**Q.** What about the “decrease of HDAC4 enzyme activity/inhibition rate” value ([4]; MCF7 tumor grown in vivo) of the same molecule?
**A.** The value was 66%*(MCF7).

**Q.** What about the “decrease of HDAC4 enzyme activity/inhibition rate” value ([4]; MDA-MB231 tumor grown in vivo) of the same molecule?
**A.** The value was 64%*(MDA-MB231).

**Q.** What about the “decrease of HDAC4 enzyme activity/inhibition rate” value ([4]; SMMC7721 tumor grown in vivo) of the same molecule?
**A.** Its value is 62%*(SMMC7721);.

**Q.** And the IC50 [5]?
**A.** Its IC50 is 56 µM.

**Q.** And the IC50 [6]?
**A.** Its IC50 is < 100 µM.

**Q.** And the inhibition in vivo at 60 mg/kg [7]?
**A.** The inhibition in vivo at 60 mg/kg was 58.9%.

**Q.** What about the inhibition in vivo at 90 mg/kg [7] of the same molecule?
**A.** Its inhibition in vivo at 90 mg/kg is 75.9%.

**Q.** What about the IC50 [8] of the same molecule?
**A.** The IC50 was < 70 µM.

**Q.** And the IC50 [9]?
**A.** Its IC50 is 78 µM.

**Q.** And the inhibition in vivo at 60 mg/kg [10]?
**A.** The inhibition in vivo at 60 mg/kg was 77.9%.

**Q.** What about the inhibition in vivo at 90 mg/kg [10] of the same molecule?
**A.** Its inhibition in vivo at 90 mg/kg is 80.7%.

**Q.** What about the IC50 [11] of the same molecule?
**A.** Its IC50 is 109 µM.

**Q.** Which IC50 [1] does the source give for CCNC(=O)CCC(NC(=O)c1cc2ccccc2oc1=O)C(=O)OC (stereo not drawn) [Compound Ia, methyl 5-ethylamino-5-oxo-2-(2-oxo-2H-benzopyran-3-carboxamido)pentanoate] here?
**A.** The IC50 was < 85 µM.

**Q.** What about the IC50 [2] of the same molecule?
**A.** The IC50 was < 85 µM.

**Q.** And the IC50 [3]?
**A.** The IC50 was < 160 µM.

**Q.** What about the “decrease of HDAC4 enzyme activity/inhibition rate” value ([4]; SMMC7721 tumor grown in vivo) of the same molecule?
**A.** Its value is 58%*(SMMC7721).

**Q.** What about the IC50 [5] of the same molecule?
**A.** Its IC50 is 250 µM.

**Q.** What about the IC50 [6] of the same molecule?
**A.** Its IC50 is < 125 µM.

**Q.** What about the inhibition in vivo at 60 mg/kg [7] of the same molecule?
**A.** Its inhibition in vivo at 60 mg/kg is 50.1%.

**Q.** What about the inhibition in vivo at 90 mg/kg [7] of the same molecule?
**A.** Its inhibition in vivo at 90 mg/kg is 61.3%.

**Q.** What about the IC50 [8] of the same molecule?
**A.** Its IC50 is < 125 µM.

**Q.** And the IC50 [9]?
**A.** The IC50 was 67 ± 30 µM.

**Q.** And the inhibition in vivo at 60 mg/kg [10]?
**A.** Its inhibition in vivo at 60 mg/kg is 55.4%.

**Q.** And the inhibition in vivo at 90 mg/kg [10]?
**A.** Its inhibition in vivo at 90 mg/kg is 60.9%.

**Q.** And the IC50 [11]?
**A.** The IC50 was 230 µM.
